Source: patent publication US20250186437A1, “CARBOLINE COMPOUNDS AND USE THEREOF” (PTC Therapeutics, Inc., priority 2021, published 2025)

System: MOLM-13 cells
Assay: MOLM-13 Cell Proliferation Assay (indicator of DHODH inhibition)
Type: cell-based
Settings: Homo sapiens, 72 Hours of culture, CellTiter-Glo, no uridine
Procedure, shortened: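 Low-passage MOLM-13 cells (10^4/well) in RPMI 1640 + 10% FBS exposed to compound (0.5% DMSO final) for 72 h at 37 °C, 5% CO2. Viability read by CellTiter-Glo luminescence; growth reflects de novo pyrimidine synthesis dependent on DHODH.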

| SMILES | IC50 |
| --- | --- |
| Cc1ccnc(N2CCc3c([nH]c4ccc(Cl)c(F)c34)C2c2ccc(/C=C/CCO)cc2)n1 (centres unmarked) [Compound 237, (3E)-4-{4-[6-chloro-5-fluoro-2-(4-methylpyrimidin-2-yl)-2,3,4,9-tetrahydro-1H-pyrido[3,4-b]indol-1-yl]phenyl}but-3-en-1-ol] | 4.7 nM |
| Cc1ccc([C@H]2c3[nH]c4ccc(Cl)cc4c3CCN2c2ncc(F)cn2)c(F)c1F [Compound 238, (1S)-6-chloro-1-(2,3-difluoro-4-methylphenyl)-2-(5-fluoropyrimidin-2-yl)-2,3,4,9-tetrahydro-1H-pyrido[3,4-b]indole] | 0.9 nM |
| Cc1nc(N2CCc3c([nH]c4cc(F)c(Cl)cc34)C2c2ccc(/C=C/CCO)cc2)ncc1F (centres unmarked) [Compound 239, (3E)-4-{4-[6-chloro-7-fluoro-2-(5-fluoro-4-methylpyrimidin-2-yl)-2,3,4,9-tetrahydro-1H-pyrido[3,4-b]indol-1-yl]phenyl}but-3-en-1-ol] | 2.5 nM |
| Cc1nc(N2CCc3c([nH]c4cc(F)c(Cl)cc34)C2c2ccc(CCCCO)cc2)ncc1F (centres unmarked) [Compound 240, 4-{4-[6-chloro-7-fluoro-2-(5-fluoro-4-methylpyrimidin-2-yl)-2,3,4,9-tetrahydro-1H-pyrido[3,4-b]indol-1-yl]phenyl}butan-1-ol] | 4.1 nM |
| Cc1nc(N2CCc3c([nH]c4ccc(Cl)c(F)c34)C2c2ccc(/C=C/CCO)cc2)ncc1F (centres unmarked) [Compound 241, (3E)-4-{4-[6-chloro-5-fluoro-2-(5-fluoro-4-methylpyrimidin-2-yl)-2,3,4,9-tetrahydro-1H-pyrido[3,4-b]indol-1-yl]phenyl}but-3-en-1-ol] | 3.4 nM |
| Cc1cc(C)nc(N2CCc3c([nH]c4ccc(Cl)c(F)c34)C2c2ccc(/C=C/CCO)cc2)n1 (centres unmarked) [Compound 242, (3E)-4-{4-[6-chloro-2-(4,6-dimethylpyrimidin-2-yl)-5-fluoro-2,3,4,9-tetrahydro-1H-pyrido[3,4-b]indol-1-yl]phenyl}but-3-en-1-ol] | 3.2 nM |
| Cc1nc(N2CCc3c([nH]c4ccc(Cl)c(F)c34)C2c2ccc(/C=C/CCO)cc2)nc(C)c1F (centres unmarked) [Compound 243, (3E)-4-{4-[6-chloro-5-fluoro-2-(5-fluoro-4,6-dimethylpyrimidin-2-yl)-2,3,4,9-tetrahydro-1H-pyrido[3,4-b]indol-1-yl]phenyl}but-3-en-1-ol] | 1.1 nM |
| Cc1cc(C)nc(N2CCc3c([nH]c4cc(F)c(Cl)cc34)C2c2ccc(/C=C/CCO)cc2)n1 (centres unmarked) [Compound 244, (3E)-4-{4-[6-chloro-2-(4,6-dimethylpyrimidin-2-yl)-7-fluoro-2,3,4,9-tetrahydro-1H-pyrido[3,4-b]indol-1-yl]phenyl}but-3-en-1-ol] | 2.8 nM |
| Cc1cc(C)nc(N2CCc3c([nH]c4cc(F)c(Cl)cc34)C2c2ccc(CCCCO)cc2)n1 (centres unmarked) [Compound 245, 4-{4-[6-chloro-2-(4,6-dimethylpyrimidin-2-yl)-7-fluoro-2,3,4,9-tetrahydro-1H-pyrido[3,4-b]indol-1-yl]phenyl}butan-1-ol] | 3.6 nM |
| Cc1nc(N2CCc3c([nH]c4ccc(Cl)c(F)c34)C2c2ccc(CCCCO)cc2)ncc1F (centres unmarked) [Compound 246, 4-{4-[6-chloro-5-fluoro-2-(5-fluoro-4-methylpyrimidin-2-yl)-2,3,4,9-tetrahydro-1H-pyrido[3,4-b]indol-1-yl]phenyl}butan-1-ol] | 2.8 nM |
| FC(F)(F)c1ccnc(N2CCc3c([nH]c4ccc(Cl)c(Br)c34)C2c2ccc(Cl)cc2)n1 (centres unmarked) [Compound 247, 5-bromo-6-chloro-1-(4-chlorophenyl)-2-[4-(trifluoromethyl)pyrimidin-2-yl]-2,3,4,9-tetrahydro-1H-pyrido[3,4-b]indole] | 1.8 nM |
| Cc1nc(N2CCc3c([nH]c4cc(F)c(Cl)cc34)C2c2ccc(CCCCO)cc2)nc(C)c1F (centres unmarked) [Compound 249, 4-{4-[6-chloro-7-fluoro-2-(5-fluoro-4,6-dimethylpyrimidin-2-yl)-2,3,4,9-tetrahydro-1H-pyrido[3,4-b]indol-1-yl]phenyl}butan-1-ol] | 2.2 nM |
| Oc1cc2[nH]c3c(c2cc1Cl)CCN(c1nccc(C(F)(F)F)n1)C3c1ccc(Cl)cc1 (centres unmarked) [Compound 250, 6-chloro-1-(4-chlorophenyl)-2-[4-(trifluoromethyl)pyrimidin-2-yl]-2,3,4,9-tetrahydro-1H-pyrido[3,4-b]indol-7-ol] | 86.1 nM |
| FC(F)(F)c1ccnc(N2CCc3c([nH]c4ccc(Cl)cc34)C2c2cnc(N3CCOCC3)nc2)n1 (centres unmarked) [Compound 251, 6-chloro-1-[2-(morpholin-4-yl)pyrimidin-5-yl]-2-[4-(trifluoromethyl)pyrimidin-2-yl]-2,3,4,9-tetrahydro-1H-pyrido[3,4-b]indole] | 2 nM |
| Oc1c(F)cccc1C1c2[nH]c3ccc(Cl)cc3c2CCN1c1nccc(C(F)(F)F)n1 (centres unmarked) [Compound 252, 2-{6-chloro-2-[4-(trifluoromethyl)pyrimidin-2-yl]-2,3,4,9-tetrahydro-1H-pyrido[3,4-b]indol-1-yl}-6-fluorophenol] | 2 nM |
| Oc1cccc(C2c3[nH]c4ccc(Cl)cc4c3CCN2c2nccc(C(F)(F)F)n2)c1F (centres unmarked) [Compound 256, 3-{6-chloro-2-[4-(trifluoromethyl)pyrimidin-2-yl]-2,3,4,9-tetrahydro-1H-pyrido[3,4-b]indol-1-yl}-2-fluorophenol] | 3.6 nM |
| Cc1ccc(C2c3[nH]c4ccc(Cl)cc4c3CCN2c2nccc(C(F)(F)F)n2)c(O)c1 (centres unmarked) [Compound 257, 2-{6-chloro-2-[4-(trifluoromethyl)pyrimidin-2-yl]-2,3,4,9-tetrahydro-1H-pyrido[3,4-b]indol-1-yl}-5-methylphenol] | 1.3 nM |
| Cc1ccc(C2c3[nH]c4ccc(Cl)cc4c3CCN2c2nccc(C(F)(F)F)n2)cc1O (centres unmarked) [Compound 258, 5-{6-chloro-2-[4-(trifluoromethyl)pyrimidin-2-yl]-2,3,4,9-tetrahydro-1H-pyrido[3,4-b]indol-1-yl}-2-methylphenol] | 28.3 nM |
| Cc1cccc(C2c3[nH]c4ccc(Cl)cc4c3CCN2c2nccc(C(F)(F)F)n2)c1F (centres unmarked) [Compound 259, 6-chloro-1-(2-fluoro-3-methylphenyl)-2-[4-(trifluoromethyl)pyrimidin-2-yl]-2,3,4,9-tetrahydro-1H-pyrido[3,4-b]indole] | 1 nM |
| FC(F)(F)c1ccnc(N2CCc3c([nH]c4ccc(Cl)cc34)C2c2ccc(-n3ccnc3)cc2)n1 (centres unmarked) [Compound 260, 6-chloro-1-[4-(1H-imidazol-1-yl)phenyl]-2-[4-(trifluoromethyl)pyrimidin-2-yl]-2,3,4,9-tetrahydro-1H-pyrido[3,4-b]indole] | 6.3 nM |
| FC(F)(F)c1ccnc(N2CCc3c([nH]c4ccc(Cl)cc34)C2c2ccc(-n3cccn3)cc2)n1 (centres unmarked) [Compound 261, 6-chloro-1-[4-(1H-pyrazol-1-yl)phenyl]-2-[4-(trifluoromethyl)pyrimidin-2-yl]-2,3,4,9-tetrahydro-1H-pyrido[3,4-b]indole] | 1.2 nM |
| FC(F)(F)c1ccnc(N2CCc3c([nH]c4ccc(Cl)cc34)C2c2ccc(N3CCOCC3)cc2)n1 (centres unmarked) [Compound 262, 6-chloro-1-[4-(morpholin-4-yl)phenyl]-2-[4-(trifluoromethyl)pyrimidin-2-yl]-2,3,4,9-tetrahydro-1H-pyrido[3,4-b]indole] | 1.3 nM |
| Fc1ccc(C2c3[nH]c4ccc(Cl)cc4c3CCN2c2nccc(C(F)(F)F)n2)c(F)c1F (centres unmarked) [Compound 263, 6-chloro-2-[4-(trifluoromethyl)pyrimidin-2-yl]-1-(2,3,4-trifluorophenyl)-2,3,4,9-tetrahydro-1H-pyrido[3,4-b]indole] | 2.5 nM |
